Reference: paper PMC6201879, “N-substituted phenylbenzamides of the niclosamide chemotype attenuate obesity related changes in high fat diet fed mice” (PLoS ONE, 2018)
pIC50: −log10 of the molar value. Like-named read-outs stand apart in the source and are kept apart here.

Columns and labels:
[1] = tested on: Salmonella typhimurium TA1535
[2] = tested on: Salmonella typhimurium TA1537
[3] = tested on: Escherichia coli WP2 uvrA (pKM101)
[4] = tested on: PH5CH8 liver cells; experiment: High-throughput hepatic de novo lipogenesis (DNL) assay, high content imaging of steatotic phenotype; assay type: cell-based, human; details: for IC50: PH5CH8 liver cells, 10-point dose response between 1μM and 1.9nM, read-out: IC50 (uM), inhibition of steatotic phenotype in DNL assay
[5] = tested on: HEK293 cells stably transduced with the human OCT3 transporter; experiment: Cellular oxygen consumption rate (OCR), MitoXpress Xtra; assay type: cell-based; details: HEK293 cells expressing human OCT3; for change in respiration / oxygen consumption rate (OCR): compared to DMSO control, 2 hours; for concentration dependence of OCR change: four concentrations
Protocol: Oxygen consumption rate experiments were performed by ZenBio, Inc (RTP, NC). HEK293 cells stably transduced with the human OCT3 transporter were plated in black-walled microclear plates (Greiner-BioOne) at 60,000 cells per well in growth medium. Cells were incubated overnight to allow attachment before growth medium was removed and replaced with 150μL of assay medium containing compound dilutions. Four concentrations of each compound were prepared and transferred to the empty wells. Control wells contained assay medium only or assay medium containing […] (FCCP) at 1μM. Ten μL of MitoXpress Xtra reagent was added to each test well and 100μL of pre-warmed mineral oil was overlaid in each well to create a seal. The plates were immediately read on a FLUOstar Omega (BMG) using dual read Time Resolved Fluorescence (TR-F) for 2 hours, with measurements taken every 2 minutes using 340nm and 650nm as excitation and emission wavelengths respectively. For lifetime analysis, two measurements per well were taken: 1) delay of 30μs, with a window of 30μs; and 2) delay of 70μs with a window of 30μs. Background TRF values were subtracted from all readings. A ratiometric analysis was performed to determine changes in the Lifetime fluorescence signal: Lifetime (μs)[T] = (D2-D1)/ln(W1/W2), where D is delay; W is fluorescence window value at each time point. Lifetime slopes were calculated using each Lifetime measurement over time. Data are presented as mean ± standard error (SE). The differences between the control (DMSO) and compound treated wells were analyzed using the Student’s t-test. A value of p≤0.05 was considered statistically significant. […]

[6] = tested on: C57-diet induced obesity (DIO) mouse; experiment: Glucose tolerance test in DIO mice; assay type: in vivo; details: 5mg/kg for 7 days
Protocol: Animals were then treated with 5mg/kg niclosamide or vehicle for 7 days and GTT was performed again.
Glucose tolerance test in DIO mice. 2g/kg of glucose was injected IP and at 15, 30 and 60 min, blood glucose levels were measured.

[7] = tested on: Salmonella typhimurium TA100; details: for Mean Revertant Colony Counts TA-100 SP9+: with S9
[8] = tested on: carbonic anhydrase-III (CAIII); details: HFD fed-DIO mice; cited from earlier work
[9] = design: method as in PMID 26245118; details: cited from earlier work
[10] = cited from earlier work
[11] = tested on: Salmonella typhimurium TA98; experiment: Ames assay, strain TA98; details: for Mean Revertant Colony Counts TA98 SP9+: with S9
[12] = tested on: Escherichia coli WP2 uvrA (pKM101); experiment: Ames assay, strain WP2 uvrA (pKM101); details: for Mean Revertant Colony Counts WP2 uvrA (pKM101) SP9+: with S9; for Mean Revertant Colony Counts WP2 uvrA (pKM101) S9-: without S9
[13] = tested on: p-AMPK Thr-172; experiment: Western blot of p-AMPK Thr-172 in liver of HFD-fed mice
[14] = tested on: Salmonella typhimurium (TA98, TA100, TA1535 and TA1537) and Escherichia coli (WP2 uvrA (pKM101)); experiment: Ames assay, overall outcome and cytotoxicity across strains
[15] = tested on: fatty acid synthase (FAS); experiment: Western blot of fatty acid synthase in liver of HFD-fed mice
[16] = tested on: phospho-AMPK Thr-172 (p-AMPK); experiment: Western blot of phospho-AMPK Thr-172 in HEK293T cells; assay type: cell-based, human
Protocol: AMPK is a metabolic sensor that maintains cellular energy supply. As validation of these changes in lipid metabolism and cellular respiration we evaluated phospho-AMPK Thr-172 (p-AMPK) levels by Western blot in HEK293 cells treated with the phenylbenzamide derivatives. Compounds were screened at 1 and 10μM using the known uncouplers niclosamide and FCCP as positive controls (Fig 4A). […] We concluded that compounds that had little effect on oxygen consumption rates also had little effect on phosphorylation of AMPK.

[17] = tested on: phospho-S6 ribosomal protein; experiment: Western blot of phospho-S6 ribosomal protein in HEK293T cells; assay type: cell-based, human
[18] = Body weight changes in HFD-fed mice; assay type: in vivo, mouse
Protocol: We next measured body weight changes in HFD-fed animals prior to treatment with niclosamide or phenylbenzamide derivatives and after 12 days, prior to sacrifice. During this time, all animals (including sham) lost some weight.
20-week old animals were treated IP with 500199 at 10 or 25mg/kg by IP over a time-course of 9 days. At day 0, 3, 6 and 9 animals were weighed and tissue samples were collected for standard histological scoring of hepatic steatosis and automated quantitative histomorphometric scoring.

[19] = tested on: carbonic anhydrase-III (CAIII); experiment: Western blot of carbonic anhydrase III in liver of HFD-fed mice; details: HFD fed-DIO mice; 10mg/kg for 12 days; vs sham
[20] = any concentration tested, vs negative control
[21] = HFD fed-DIO mice, 10mg/kg for 12 days, vs sham

Nc1ccc2cc3ccccc3cc2c1 [Compound 2-AA, 2-Aminoanthracene, reference compound]
Mean Revertant Colony Counts TA-1535 SP9+ ([1]; Salmonella typhimurium): 24.0
Mean Revertant Colony Counts TA-1537 SP9+ ([2]; Salmonella typhimurium): 11.0
Mean Revertant Colony Counts WP2 uvrA (pKM101) SP9+ [3]: 345.3

O=C(Nc1ccc([N+](=O)[O-])cc1Cl)c1cc(Cl)ccc1O [Niclosamide]
IC50 ([4]; Homo sapiens): 0.02 µM
reduced steatosis (steatotic phenotype in DNL assay) ([4]; PH5CH8, assay validation): 77 ±12%
change in respiration / oxygen consumption rate (OCR) [5]: increased OCR
concentration dependence of OCR change [5]: dose dependent increase in OCR
blood glucose levels at 60 minutes, glucose tolerance test ([6]; 2g/kg glucose IP): 250 mg/dL
plasma glucose levels after the 7-day treatment period ([6]; pre-treatment approximately 400mg/dL): ~275 mg/dL
Mean Revertant Colony Counts TA-100 SP9+ ([7]; 1.5 ug/Well): 19.3
Mean Revertant Colony Counts TA-100 S9- ([7]; 1.5 ug/Well, without S9): 9.3
Mean Revertant Colony Counts TA-100 SP9+ ([7]; 4 ug/Well): 36.7
Mean Revertant Colony Counts TA-100 SP9+ ([7]; 10 ug/Well): 23.3
Mean Revertant Colony Counts TA-100 SP9+ ([7]; 25 ug/Well): 2.3
fold increase in the mean number of revertant colonies, TA100 [7, 20]: < 2 fold
Mean Revertant Colony Counts TA-1535 SP9+ ([1]; 1.5 ug/Well, with S9): 3.3
Mean Revertant Colony Counts TA-1535 SP9+ ([1]; 4 ug/Well, with S9): 3.7
fold increase in the mean number of revertant colonies, TA1535 [1, 20]: < 3 fold
Mean Revertant Colony Counts TA-1537 SP9+ ([2]; 1.5 ug/Well, with S9): 1.7
Mean Revertant Colony Counts TA-1537 SP9+ ([2]; 4 ug/Well, with S9): 2.0
Mean Revertant Colony Counts TA-1537 SP9+ ([2]; 10 ug/Well, with S9): 0.7
fold increase in the mean number of revertant colonies, TA1537 [2, 20]: < 3 fold
carbonic anhydrase-III (CAIII) hepatic protein [8]: down regulated
half-life [9]: 6.7 h
peak plasma concentration (Cmax) ([10]; 5mg/kg oral dose in rats): 354 ng/mL
half-life ([10]; rat, in vivo, po, 5 mg/kg): 6.7 h
Mean Revertant Colony Counts TA98 SP9+ ([11]; 1.5 ug/Well): 52.0
Mean Revertant Colony Counts TA98 S9- ([11]; 1.5 ug/Well, without S9): 1.5
Mean Revertant Colony Counts TA98 SP9+ ([11]; 4 ug/Well): 108.3
Mean Revertant Colony Counts TA98 SP9+ ([11]; 10 ug/Well): 194.7
fold increase in the mean number of revertant colonies, TA98 ([11]; 1.5, 4 and 10 μg/well in the presence of S9 mix): ≥ 2 fold
Mean Revertant Colony Counts WP2 uvrA (pKM101) SP9+ ([12]; 1.5 ug/Well): 36.7
Mean Revertant Colony Counts WP2 uvrA (pKM101) S9- ([12]; 1.5 ug/Well): 17.3
Mean Revertant Colony Counts WP2 uvrA (pKM101) SP9+ ([12]; 4 ug/Well): 44.0
Mean Revertant Colony Counts WP2 uvrA (pKM101) S9- ([12]; 4 ug/Well): 20.7
Mean Revertant Colony Counts WP2 uvrA (pKM101) SP9+ ([12]; 10 ug/Well): 34.0
Mean Revertant Colony Counts WP2 uvrA (pKM101) S9- ([12]; 10 ug/Well): 19.3
Mean Revertant Colony Counts WP2 uvrA (pKM101) SP9+ ([12]; 25 ug/Well): 31.7
Mean Revertant Colony Counts WP2 uvrA (pKM101) S9- ([12]; 25 ug/Well): 14.7
Mean Revertant Colony Counts WP2 uvrA (pKM101) SP9+ ([12]; 64 ug/Well): 27.0
Mean Revertant Colony Counts WP2 uvrA (pKM101) S9- ([12]; 64 ug/Well): 22.7
Mean Revertant Colony Counts WP2 uvrA (pKM101) SP9+ ([12]; 160 ug/Well): 24.7
Mean Revertant Colony Counts WP2 uvrA (pKM101) S9- ([12]; 160 ug/Well): 17.7
Mean Revertant Colony Counts WP2 uvrA (pKM101) SP9+ ([12]; 400 ug/Well): 14.7
Mean Revertant Colony Counts WP2 uvrA (pKM101) S9- ([12]; 400 ug/Well): 17.7
Mean Revertant Colony Counts WP2 uvrA (pKM101) SP9+ ([12]; 1000 ug/Well): 14.7
Mean Revertant Colony Counts WP2 uvrA (pKM101) S9- ([12]; 1000 ug/Well): 14.0
fold increase in the mean number of revertant colonies, WP2 uvrA (pKM101) [12, 20]: < 2 fold
concentration with significant cytotoxicity, WP2 uvrA (pKM101) ([12]; both in the presence and absence of S9 mix): ≥ 400 μg /well
p-AMPK Thr-172 in liver ([13]; HFD-fed mice, 5 or 25mg/kg IP daily for 12 days): significantly upregulated
Ames assay outcome (mutagenicity) [14]: positive
concentration with significant cytotoxicity, strains TA98, TA100, TA1535 and TA1537 ([14]; in the absence of the S9 mix): ≥ 1.5 μg /well
concentration with significant cytotoxicity, strains TA98, TA100, TA1535 and TA1537 ([14]; in the presence of S9 mix): ≥ 10 μg /well
expression of fatty acid synthase (FAS) in liver ([15]; HFD-fed mice, highest concentration (25mg/kg) IP daily for 12 days): significant reduction

COC(=O)c1ccc(NC(=O)c2cc(C(C)(C)C)ccc2O)c(Cl)c1 [Compound 500199, Methyl 4-[(5-tert-butyl-2-hydroxybenzene)amido]-3-chlorobenzoate]
IC50 ([4]; Homo sapiens): 0.06 µM
pIC50 ([4]; Homo sapiens, S1 Table, SAR for N-Substituted Phenylbenzamides, read-out: IC50): 7.18
Active/Inactive ([4]; S1 Table, SAR for N-Substituted Phenylbenzamides): Active
change in respiration / oxygen consumption rate (OCR) [5]: significant changes
concentration dependence of OCR change [5]: dose dependent increase in OCR
phosphorylation of AMPK (p-AMPK Thr-172) by Western blot ([16]; 1 and 10μM, negatives re-screened at 5 and 20 μM, 3 hours): stimulated phosphorylation of AMPK
concentration at which phosphorylation of AMPK peaks ([16]; Western blot): 5 µM
phospho-S6 ribosomal protein [17]: inversely regulated
body weight change vs sham ([18]; 10mg/kg I.P daily for 12 days): lost significantly more weight
body weight vs sham ([18]; 10 or 25mg/kg IP over 9 days): no statistically significant difference
phosphorylation of AMPK at Thr-172 in liver [13, 21]: stimulated phosphorylation of AMPK at Thr-172
FAS protein levels in liver [15, 21]: reduced
CAIII protein levels in liver [19]: reduced
